Reference: ChEMBL document CHEMBL5550157, “Synthesis and biological evaluation of orally active anti-Trypanosoma agents” (Bioorg Med Chem, 2024)

Legend:
[1] = Selectivity index, ratio of IC50 for mouse RAW264.7 cells to IC50 for antitrypanosomal activity against bloodstream Trypanosoma brucei Lister 427; format: toxicity; settings: read-out: Ratio IC50
[2] = Cytotoxicity against HEK293 cells assessed as reduction in cell viability after 48 hrs by MTT assay; format: toxicity, cell-based; settings: human
[3] = Cytotoxicity against mouse RAW264.7 cells assessed as reduction in cell viability after 48 hrs by MTT assay; format: toxicity, cell-based
Trypanosoma brucei [4] = assay: Antitrypanosomal activity against bloodstream Trypanosoma brucei Lister 427 assessed as reduction in parasite viability incubated for 48 hrs by MTS assay; format: functional, organism-based; settings: Lister 427, 48 h
[5] = Selectivity index, ratio of IC50 for HEK293 cells to IC50 for antitrypanosomal activity against bloodstream Trypanosoma brucei Lister 427; format: toxicity; settings: human, read-out: Ratio IC50
[6] = Acute toxicity in CD1 mouse assessed as change in body weight at 50 mg/kg, po; format: organism-based; settings: in vivo
Trypanosoma brucei [7] = assay: Antitrypanosomal activity against Trypanosoma brucei infected in CD1 mouse assessed as reduction in parasite number at 50 mg/kg/day, po administered for 3 days and measured on day 5 by hemocytometer analysis (reference value: 40 10^6/ml; format: functional; settings: time 5 day

| Structure (SMILES) | IC50 (Trypanosoma brucei [4]) [µM] | selectivity ratio [1] | IC50 at 48 h [2] [µM] | IC50 at 48 h [3] [µM] | selectivity ratio [5] | Activity [6] | Activity (Trypanosoma brucei [7]) |
| --- | --- | --- | --- | --- | --- | --- | --- |
| COc1cc(NC(=O)c2ccco2)ccc1S(N)(=O)=O | 9.79 | > 10.2 | > 100 | > 100 | > 10.2 | – | – |
| COc1cc(NC(=O)c2ccc3c(c2)OCO3)ccc1S(N)(=O)=O | 10.9 | 4.41 | 8.8 | 48.1 | 0.81 | – | – |
| COc1cc(NC(=O)c2ccc(N(C)C)cc2)ccc1S(N)(=O)=O | > 100 | – | > 100 | > 100 | – | – | – |
| COc1cc(NC(=O)c2ccc(C)c([N+](=O)[O-])c2)ccc1S(N)(=O)=O | 7.76 | – | > 100 | 53.1 | > 33.3 | – | – |
| CCOc1ccc(C(=O)Nc2ccc(S(N)(=O)=O)c(OC)c2)cc1 | 2.68 | > 37.3 | > 100 | > 100 | > 37.3 | – | – |
| COc1cc(NC(=O)c2ccccc2[N+](=O)[O-])ccc1S(N)(=O)=O | > 100 | – | > 100 | > 100 | – | – | – |
| COc1cc(NC(=O)c2ccccn2)ccc1S(N)(=O)=O | > 100 | – | > 100 | > 100 | – | – | – |
| COc1cc(NC(=O)COCC(=O)Nc2ccc(S(N)(=O)=O)c(OC)c2)ccc1S(N)(=O)=O | 85.2 | 0.95 | 98 | 81 | 1.15 | – | – |
| COc1cc(NC(=O)c2ccc(Cl)c([N+](=O)[O-])c2)ccc1S(N)(=O)=O | 15.2 | 4.77 | 15.7 | 72.7 | 1.03 | – | – |
| COc1cc(NC(=O)c2ccc(SC)cc2)ccc1S(N)(=O)=O | > 100 | < 0.2 | > 100 | 19.6 | – | – | – |
| COc1cc(NC(=O)c2ccc3ccccc3c2)ccc1S(N)(=O)=O | 1 | 18.1 | 18 | 18.1 | 17.9 | Non-Toxic | 10 10^6/ml |
| COc1cc(NC(=O)c2cc(OC)c(OC)c(OC)c2)ccc1S(N)(=O)=O | 92.1 | 0.38 | 32.9 | 34.6 | 0.36 | – | – |
| COc1cc(NC(=O)c2ccc([N+](=O)[O-])cc2)ccc1S(N)(=O)=O | 3.29 | 176 | > 100 | 578 | > 30.4 | – | – |
| COc1cc(NC(=O)c2ccc(C#N)cc2)ccc1S(N)(=O)=O | 4.23 | > 26.5 | > 100 | > 100 | > 26.5 | – | – |
| CCc1ccc(C(=O)Nc2ccc(S(N)(=O)=O)c(OC)c2)cc1 | 37.2 | 0.64 | 5.69 | 23.9 | 0.15 | – | – |

Now from value to compound, other results behind:

| IC50 (Trypanosoma brucei [4]) [µM] | Structure (SMILES) | selectivity ratio [1] | IC50 at 48 h [2] [µM] | IC50 at 48 h [3] [µM] | selectivity ratio [5] | Activity [6] | Activity (Trypanosoma brucei [7]) |
| --- | --- | --- | --- | --- | --- | --- | --- |
| 19.4 | COc1cc(NC(=O)c2cccc(I)c2)ccc1S(N)(=O)=O | > 5.16 | 48.9 | > 100 | 2.53 | – | – |
| 2.73 | COc1cc(NC(=O)c2cccc(Cl)c2)ccc1S(N)(=O)=O | 33.5 | > 100 | 91.5 | > 36.6 | – | – |
| > 100 | COc1cc(NC(=O)c2cc(Cl)cc(Cl)c2)ccc1S(N)(=O)=O | < 0.81 | 98 | 81 | < 0.98 | – | – |
| 35.9 | COc1cc(NC(=O)c2cccc(C(F)(F)F)c2)ccc1S(N)(=O)=O | 2.13 | > 100 | 76.7 | > 2.78 | – | – |
| 3.26 | COc1cc(NC(=O)c2ccc(Br)cc2)ccc1S(N)(=O)=O | 12.1 | 86.8 | 48.3 | 21.7 | – | – |
| 70.4 | COc1cc(NC(=O)c2ccc(C)cc2)ccc1S(N)(=O)=O | 0.76 | 17.2 | 53.2 | 0.24 | – | – |
| 2.99 | COc1cccc(C(=O)Nc2ccc(S(N)(=O)=O)c(OC)c2)c1 | 38 | > 100 | 113 | > 33.5 | – | – |
| 81.4 | COc1cc(NC(=O)c2ccc(C(F)(F)F)cc2C(F)(F)F)ccc1S(N)(=O)=O | 0.73 | > 100 | 59.1 | > 1.22 | – | – |
| 20.8 | COc1cc(NC(=O)c2cccc(C#N)c2)ccc1S(N)(=O)=O | 1.68 | > 100 | 35 | > 4 | – | – |
| 31 | COc1cc(NC(=O)c2cccc(C)c2)ccc1S(N)(=O)=O | > 3.22 | > 100 | > 100 | > 3.22 | – | – |
| 13.3 | COc1cc(NC(=O)c2cccc(Br)c2)ccc1S(N)(=O)=O | 1.57 | 48.6 | 20.9 | 3.66 | – | – |
| 23.9 | COc1cc(NC(=O)c2cc(C(F)(F)F)cc(C(F)(F)F)c2)ccc1S(N)(=O)=O | 1.94 | 74.3 | 46.3 | 3.11 | – | – |
| 46.6 | COc1cc(NC(=O)c2ccc(Cl)cc2)ccc1S(N)(=O)=O | 0.94 | > 100 | 43.9 | > 2.14 | – | – |
| 38.6 | COc1cc(NC(=O)c2ccc(Cl)c(Cl)c2)ccc1S(N)(=O)=O | 0.62 | 22.4 | 23.8 | 0.58 | – | – |
| 36.3 | COc1cc(NC(=O)c2ccc(OC(F)(F)F)cc2)ccc1S(N)(=O)=O | 0.93 | 35.8 | 33.8 | 0.99 | – | – |
